# Patent US12178840B2, “Method and compositions comprising a CT20 peptide” (UNIVERSITY OF CENTRAL FLORIDA RESEARCH FOUNDATION, INC., priority 2014, dated 2024)
# Residues, ends and D or L forms follow the SMILES beside them.
# Legend:
# Type in all cases: cell-based, human
# [1] = tested on: MDA-MB-436 cells; conditions: 75 ug/mL, time course
# Method: (§1) Measurement of cell viability: Cells at 60% confluency were treated with CT20p at a dose of 75 ug/mL for varying lengths of time. Following treatment, cells were collected and stained with Sytox AADvanced and F2N12S Violet Ratiometric Apoptosis kit (Invitrogen). Data was acquired by flow cytometry on a FACS Canto (BD Biosciences), and analyzed with FCSExpress software (DeNovo).
# (§2) The cytotoxicity of CT20p to the cell lines was also assessed. To do this, cells were treated with the effective dose of CT20p in a time course-experiment, and membrane symmetry and permeability were examined by flow cytometry (FIG. 5B). […] BT-549 cells, on the other hand, were resistant to the effects of the peptide.
# [2] = tested on: BT-549 cells; experiment: Cell viability by flow cytometry (Sytox AADvanced / F2N12S), time course; conditions: 75 ug/mL
# Method: as §1, §2
# [3] = tested on: MDA-MB-231 cells; experiment: as above; conditions: 75 ug/mL
# Method: as §1, §2
# [4] = tested on: tubulin in MDA-MB-231 cells; experiment: Fixed cell immunofluorescence of tubulin; conditions: 24 hours of CT20p treatment
# Method: (§3) Fixed cell immunofluorescence: Cells were seeded on glass coverslips (Fisher) in a 6-well plate at a density of 150,000 cells/well. Cells at 60% confluency were treated with CT20p or left untreated for 24 hours. After CT20p treatment, cells were stained with Mitotracker Red CMXRos (Life Technologies) at a concentration of 200 nM for 30 minutes, before being fixed in ice cold methanol for 10 minutes at −20° C. Cells were then permeabilized in 0.1% Triton X-100 for 10 minutes at 37° C. Samples were blocked in 5% normal goat serum (Santa Cruz) for 30 minutes at 37° C., then incubated with primary antibody α-tubulin (DM1A) (Santa Cruz) for 3 hours at 37° C. Secondary antibody was goat α-mouse IgG-FITC (Santa Cruz) and was applied for 1 hour at room temperature. Coverslips were mounted in UltraCruz mounting media (Santa Cruz), which contains DAPI for nuclear staining. Images were obtained with a Zeiss LSM 710 microscope, using a Zeiss 63× Pan-Apocromat oil immersion lens and Zeiss Zen software. To determine average tubulin levels per cell, the amount of FITC fluorescence intensity per region of interest was divided by the number of cells in the field. At least four images containing between 5 and 12 cells were quantified for each condition. Image analysis was done using Volocity software (Perkin Elmer).
# CT20p's effect on the other main client of CCT, tubulin, was also examined. […]
# [5] = tested on: tubulin in MCF-10A cells; experiment: Fixed cell immunofluorescence of tubulin; conditions: 24 hours of CT20p treatment
# Method: as §3, with “Elmer). […]” for “Elmer).”
# [6] = tested on: TNBC cell lines and MCF-10A; experiment: Metabolic stress tests (Seahorse, oxygen consumption and extracellular acidification); conditions: 75 ug/mL for 24 hours before the assay
# Method: Measurement of oxygen consumption and extracellular acidification: 24-well culture plates for use with the Seahorse XFe24 analyzer were coated with Cell-Tak (BD Bioscience) at 3.5 ug/cm2. Cells were then seeded at 60,000 cells/well and allowed to adhere overnight. Measurements of oxygen consumption rate and extracellular acidification rate were obtained using a Seahorse XFe 24 analyzer (Seahorse Bioscience). To obtain mitochondrial metabolic profiles, injections of oligomycin (1 uM), FCCP (0.3 uM), rotenone (0.1 uM), and antimycin A (2 uM) were performed. The mitochondrial coupling efficiency was calculated as: [1−(minimum oligomycin response/final basal measurement)]×100. To obtain glycolytic metabolic profiles, injections of glucose (10 mM), oligomycin (1 uM), and 2-deoxy-D-glucose (100 mM) were performed. Glycolytic reserve capacity was calculated as: maximum oligomycin response−maximum glucose response. […] Metabolic capacity was defined as the maximum recorded measurement in both mitochondrial and glycolytic contexts. CT20p-treated results were calculated as a percentage of untreated results.
# The effect of CT20p on cellular metabolism was also examined by pre-treating the cells with CT20p prior to running metabolic stress tests. Glycolytic capacity (FIG. 6C) and respiration capacity (FIG. 6F) were calculated for treated cells with respect to untreated cells.
compound,measurement,setting,value
CC[C@H](C)[C@H](NC(=O)[C@@H](NC(=O)[C@H](CC(C)C)NC(=O)[C@H](CO)NC(=O)[C@H](C)NC(=O)[C@@H](NC(=O)[C@H](CC(C)C)NC(=O)[C@@H](NC(=O)CNC(=O)[C@H](C)NC(=O)[C@@H](NC(=O)[C@H](Cc1ccccc1)NC(=O)[C@@H](NC(=O)[C@@H](NC(=O)[C@@H](NC(C)=O)C(C)C)[C@@H](C)O)[C@@H](C)CC)C(C)C)C(C)C)[C@@H](C)O)[C@@H](C)O)C(=O)N[C@@H](Cc1c[nH]c2ccccc12)C(=O)N[C@@H](CCCCN)C(=O)N[C@@H](CCCCN)C(=O)N[C@@H](CCSC)C(=O)NCC(N)=O [CT20] (Ac-VTIFVAGVLTASLTIWKKMG-NH2),Earliest time at which characteristics of cell death were displayed,[1],6 h
same,Sensitivity to CT20p cytotoxicity,[2],resistant
same,Sensitivity to CT20p cytotoxicity,[3],highly susceptible
same,Amount of tubulin per cell,[4],significant decrease
same,Amount of tubulin per cell,[5],no significant loss
same,"Metabolic responses (glycolytic capacity, respiration capacity) that could explain the cytotoxicity pattern",[6],None of the cell lines displayed metabolic responses
